Test results: PMC10315211 (Molecular microbiology, 2023)

Biological target: Rv0805 (N-His-Rv0805) (Mycobacterium tuberculosis, UniProt P9WP65)
Sequence (P9WP65 whole entry): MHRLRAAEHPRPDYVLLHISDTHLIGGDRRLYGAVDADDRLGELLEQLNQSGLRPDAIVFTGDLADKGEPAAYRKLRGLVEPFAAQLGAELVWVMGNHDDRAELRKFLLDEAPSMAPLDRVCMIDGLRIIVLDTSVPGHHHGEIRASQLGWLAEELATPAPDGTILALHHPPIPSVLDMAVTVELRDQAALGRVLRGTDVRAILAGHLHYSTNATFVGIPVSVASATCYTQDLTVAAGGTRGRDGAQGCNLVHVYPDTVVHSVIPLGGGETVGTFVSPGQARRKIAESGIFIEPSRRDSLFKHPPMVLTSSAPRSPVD

SMILES: C[N+](C)(C)CCOP(=O)([O-])OC[C@H](O)CO [glycerophosphocholine]
- choline oxidase / HRP coupled Amplex Red fluorometric assay: both Rv0805 and CpdAEc produced choline and Gly3P from glycerophosphocholine (GPC)
